Earlier results on 2 compounds are cited in US20080262249A1, “Psorospermin and Analogues” (priority 2004, published 2008).

The target in series [1] is T1, topoisomerase II-DNA complex (Drosophila melanogaster, UniProt P15348).
T1 sequence (P15348 1-1447): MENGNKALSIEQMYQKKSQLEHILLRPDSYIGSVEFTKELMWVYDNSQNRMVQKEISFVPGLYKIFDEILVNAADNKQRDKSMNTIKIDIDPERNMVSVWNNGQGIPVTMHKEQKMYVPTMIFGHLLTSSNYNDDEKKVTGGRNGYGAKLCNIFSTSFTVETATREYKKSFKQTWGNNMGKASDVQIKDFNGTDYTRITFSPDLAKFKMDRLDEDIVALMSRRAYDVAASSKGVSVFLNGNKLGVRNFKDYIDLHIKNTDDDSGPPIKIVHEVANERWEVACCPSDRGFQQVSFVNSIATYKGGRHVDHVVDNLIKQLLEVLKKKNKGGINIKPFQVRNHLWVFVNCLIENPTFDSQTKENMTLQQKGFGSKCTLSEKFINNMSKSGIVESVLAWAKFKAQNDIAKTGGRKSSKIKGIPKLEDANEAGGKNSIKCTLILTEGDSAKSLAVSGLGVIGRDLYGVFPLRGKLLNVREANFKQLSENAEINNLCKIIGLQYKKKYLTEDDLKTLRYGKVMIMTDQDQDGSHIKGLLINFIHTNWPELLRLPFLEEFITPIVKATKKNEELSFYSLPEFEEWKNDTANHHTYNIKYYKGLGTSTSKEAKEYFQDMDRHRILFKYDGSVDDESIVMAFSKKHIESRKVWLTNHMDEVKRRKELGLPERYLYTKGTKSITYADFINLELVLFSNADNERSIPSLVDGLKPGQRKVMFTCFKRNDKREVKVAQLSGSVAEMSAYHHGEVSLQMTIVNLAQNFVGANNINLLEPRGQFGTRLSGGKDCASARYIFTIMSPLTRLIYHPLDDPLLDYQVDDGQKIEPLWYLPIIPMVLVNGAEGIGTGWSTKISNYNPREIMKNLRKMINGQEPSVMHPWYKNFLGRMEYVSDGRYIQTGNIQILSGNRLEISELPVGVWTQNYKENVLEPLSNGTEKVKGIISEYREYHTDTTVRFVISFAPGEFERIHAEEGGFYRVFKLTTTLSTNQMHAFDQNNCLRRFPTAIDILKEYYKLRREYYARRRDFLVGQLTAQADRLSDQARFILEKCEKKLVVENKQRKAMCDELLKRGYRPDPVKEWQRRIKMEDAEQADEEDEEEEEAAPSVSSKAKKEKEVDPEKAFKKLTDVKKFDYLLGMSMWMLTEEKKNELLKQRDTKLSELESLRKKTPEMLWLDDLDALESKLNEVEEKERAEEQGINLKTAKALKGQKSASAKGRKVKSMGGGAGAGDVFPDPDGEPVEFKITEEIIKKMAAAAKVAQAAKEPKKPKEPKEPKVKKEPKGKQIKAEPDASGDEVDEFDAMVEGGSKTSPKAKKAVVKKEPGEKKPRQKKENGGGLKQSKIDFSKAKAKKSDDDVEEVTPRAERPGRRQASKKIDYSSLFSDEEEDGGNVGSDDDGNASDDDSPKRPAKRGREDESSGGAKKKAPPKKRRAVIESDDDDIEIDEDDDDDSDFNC

Series [2] addresses T1, topoisomerase II-DNA complex. This is another data set of the same source.

Consider `C/C=C\C1OC1(C)c1cc(=O)c2c(C)cc3c(c2o1)C(=O)c1c(O)c([C@H]2C[C@](C)(N(C)C)[C@@H](OC(C)=O)[C@@H](C)O2)cc([C@@H]2C[C@H](N(C)C)[C@@H](O)[C@@H](C)O2)c1C3=O` (some centres unmarked) [pluramycin, reference compound], for which, in series [1] (increasing topoisomerase II concentration), the “effect of increasing topoisomerase II concentration on DNA alkylation” value is given as “inhibited”.

Regarding `COc1cc2c(c3oc4c(O)cccc4c(=O)c13)C[C@H]([C@@]1(C)CO1)O2` [psorospermin], the “enhancement of psorospermin alkylation at site A by topoisomerase II” value in series [1] (site A) is reported as 3 fold. Moreover, the “enhancement of psorospermin alkylation at site B by topoisomerase II” value in series [1] (site B, guanine at +4′ position) was 25 fold. In series [2] (addition of excess salt), the “reversibility of stimulated topoisomerase II-induced DNA cleavage” value is recorded as “slowly reversed”. The “psorospermin-induced DNA cleavage by topoisomerase II, maximum” value in series [2] (site B, 10 μM drug concentration) was 3 fold.
